# PubChem BioAssay AID588390 (Sanford-Burnham Center for Chemical Genomics, 2011)
# Activity calls are given as the source filed them. The rule behind the calls is not given here.
# Molecular target: Ubiquitin-conjugating enzyme E2 N (Homo sapiens) (UniProt P61088)
# Assay: UBC13 polyubiquitination inhibitor analogues, SAR follow-up, biochemical, TR-FRET, set 2 (AID 588390)
# Ubiquitin-conjugating enzyme E2 N (Homo sapiens), sequence (P61088 whole entry, looked up): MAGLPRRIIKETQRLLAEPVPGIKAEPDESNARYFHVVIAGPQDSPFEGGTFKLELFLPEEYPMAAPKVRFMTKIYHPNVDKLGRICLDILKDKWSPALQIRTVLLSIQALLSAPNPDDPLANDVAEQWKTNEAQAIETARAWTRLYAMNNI
row,SMILES,IC50
1,CC1(C)Cc2c(sc(NC(=O)C(=O)N3CCCC3)c2C(N)=O)CO1,0.58 µM
2,CC1(C)Cc2c(sc(NC(=O)C(=O)NCC3CCCO3)c2C(=O)O)CO1 (configuration not stated),inactive
3,O=C(NCCCN1CCN(c2ccccc2)CC1)C1CCCN(c2ncnc3c2nc2n3CCCCC2)C1 (configuration not stated),3.3 µM
4,O=C(NCCCN1CCN(c2ccc(F)cc2)CC1)C1CCCN(c2ncnc3c2nc2n3CCCCC2)C1 (configuration not stated),2.91 µM
5,COc1ccccc1N1CCN(CCCNC(=O)C2CCCN(c3ncnc4c3nc3n4CCCCC3)C2)CC1 (configuration not stated),inactive
6,Cc1ccc(C)c(N2CCN(CCCNC(=O)C3CCCN(c4ncnc5c4nc4n5CCCCC4)C3)CC2)c1 (configuration not stated),9.81 µM
7,COC(=O)c1c(NC(=O)C(=O)NCC2CCCO2)sc2c1CC(C)(C)OC2 (configuration not stated),4.25 µM
8,O=C(C1CCN(c2ncnc3c2nc2n3CCCCC2)CC1)N1CCN(c2ccccn2)CC1,inactive
9,CC1(C)Cc2c(sc(NC(=O)C(=O)NCCN3CCOCC3)c2C(N)=O)CO1,1.34 µM
10,O=C(C1CCN(c2ncnc3c2nc2n3CCCCC2)CC1)N1CCN(c2ccc(F)cc2)CC1,inactive
11,O=C(C1CCN(c2ncnc3c2nc2n3CCCCC2)CC1)N1CCN(Cc2ccccc2)CC1,2.75 µM
12,Cc1cccc(N2CCN(CCCNC(=O)C3CCCN(c4ncnc5c4nc4n5CCCCC4)C3)CC2C)c1 (configuration not stated),inactive
13,O=C(c1ccco1)N1CCN(C(=O)C2CCN(c3ncnc4c3nc3n4CCCCC3)CC2)CC1,> 100 µM (inactive)
14,CC1(C)Cc2c(sc(NC(=O)C(=O)NCC3CCCO3)c2C(N)=O)CO1 (configuration not stated),0.63 µM
15,O=C(C1CCN(c2ncnc3c2nc2n3CCCCC2)CC1)N1CCN(c2ncccn2)CC1,> 100 µM (inactive)

# The remaining lines, values ahead:
row,IC50,SMILES
1,> 100 µM (inactive),Cc1nc2cc(F)ccc2n1C1CCN(CC(=O)Nc2ccccc2)CC1
2,inactive,COc1ccc(OC)c(NC(=O)CN2CCC(n3cnc4cc(F)ccc43)CC2)c1
3,> 100 µM (inactive),Cc1cccc(NC(=O)CN2CCC(n3cnc4cc(F)ccc43)CC2)c1C
4,> 100 µM (inactive),Cc1nc2ccccc2n1C1CCN(CC(=O)Nc2ccccc2Oc2ccccc2)CC1
5,> 100 µM (inactive),O=C(CN1CCC(n2cnc3cc(C(F)(F)F)ccc32)CC1)Nc1ccc2c(c1)OCCO2
6,> 100 µM (inactive),O=C(CN1CCC(n2c(C(F)(F)F)nc3cc(F)ccc32)CC1)Nc1ccc2c(c1)OCO2
7,> 100 µM (inactive),O=C(CN1CCC(n2cnc3cc(F)ccc32)CC1)Nc1cccc(C(F)(F)F)c1
8,> 100 µM (inactive),CCOc1ccc(NC(=O)CN2CCC(n3cnc4cc(F)ccc43)CC2)cc1
9,4 µM,CCOc1ccccc1NC(=O)CN1CCC(n2cnc3cc(F)ccc32)CC1
10,> 100 µM (inactive),COc1ccc(NC(=O)CN2CCC(n3c(C)nc4cc(F)ccc43)CC2)c(OC)c1
11,inactive,COc1ccc(OC)c(NC(=O)CN2CCC(n3c(C)nc4cc(F)ccc43)CC2)c1
12,inactive,O=C(CN1CCC(n2cnc3cc(F)ccc32)CC1)Nc1ccccc1Br
